Laboratory results from patent US20230056205A1, “SUBSTITUTED 4,6-DIHYDROSPIRO[[1,2,3]TRIAZOLO[4,5-B]PYRIDINE-7,3'-INDOLINE]-2',5(3H)-DIONE ANALOGUES” (The Board of Regents of The University of Texas System, priority 2019, published 2023).
Entries after “also recorded” stand apart in the source; their conditions may differ.

Assays:
DENV-4 replicon = assay: Luciferase reporter replicon-based screening, DENV-4; format: cell-based, DENV-4 (strain D4MY01-22713); conditions: for EC50: Dengue virus, DENV4, Huh-7, 48 h, read-out: EC50 DENV-4
Outline: (§1)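 Huh7 cells carrying Renilla luciferase/neo replicons of DENV-1 (WestPac), DENV-2 (NGC), DENV-3 (D3MY05-34640) or DENV-4 (D4MY01-22713), treated with 2-fold compound dilutions for 48 h at 37 °C in duplicate. Live-cell luciferase read; EC50 by four-parameter logistic fit.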

DENV-1 replicon = assay: Luciferase reporter replicon-based screening, DENV-1; format: cell-based, DENV-1 (strain WestPac); conditions: for EC50: Dengue virus, DENV1, Huh-7, 48 h, read-out: EC50 DENV-1
Outline: as §1

[1] = test system: P12 resistant DENV-2 viruses (NS4B V63M or V63L); format: cell-based, DENV-2 strain NGC; conditions: after twelve rounds of selection with compound 63, selections III to VI, Huh7 cells
DENV-3 replicon = assay: Luciferase reporter replicon-based screening, DENV-3; format: cell-based, DENV-3 (strain D3MY05-34640); conditions: for EC50: Dengue virus, DENV3, Huh-7, 48 h, read-out: EC50 DENV-3, Huh7 cells stably expressing DENV-3 replicon, 48 h
Outline: as §1

DENV-2 replicon = assay: Luciferase reporter replicon-based screening, DENV-2; format: cell-based, DENV-2 (New Guinea C strain, NGC); conditions: for EC50: Dengue virus, DENV2, Huh-7, 48 h, read-out: EC50 DENV-2, Huh7 cells stably expressing DENV-2 replicon, 48 h
Outline: as §1

[2] = Cytotoxicity assay (CellTiter-Glo); format: cell-based; conditions: human, Huh7 cells stably expressing DENV-2 replicon
Outline: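 Huh7 or Huh7 replicon cells, seeded overnight at 37 °C, exposed to 2-fold serial dilutions of compound for 48 h in duplicate. Viability by CellTiter-Glo, normalised to 0.45% DMSO wells (100%); CC50 by four-parameter logistic regression.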

[3] = biological target: T1, DENV-2 viral NS4B protein (Dengue virus type 2, UniProt P14340); assay: Pull-down assay with biotinylated compounds; format: binding, DENV-2 strain NGC; conditions: lysates of DENV-2 infected Huh7 cells, streptavidin beads, Western blot
T1 construct: endogenous in cells; host or cells: Huh7 cells infected with DENV-2 strain NGC (virus-encoded protein in the lysate)
Experimental: Pull-Down Assay. 4 × 10^6 Huh7 cells were seeded in a T-75 flask. The next day, cells were infected with DENV-2 strain NGC at a MOI of 2.0 in the presence of 10 µM compound 73 or 75. Cells treated with 0.25% DMSO were used as a control. After 48 h-incubation at 37° C., cells were harvested and lysed in 500 µL lysis buffer comprising 20 mM Tris-HCL pH 7.5, 100 mM NaCl, 0.5% DDM, and EDTA-free protease inhibitor cocktail (Roche). After removing the cell debris by centrifugation at 15000 rpm for 10 min, the lysates were mixed with corresponding compound at a final concentration of 100 µM or DMSO (0.25%) prior to incubation with 80 µL Streptavidin Magnetic Beads (ThermoFisher Scientific). After incubation at 4° C. overnight with agitation, the beads were washed 5 times with PBST buffer (PBS containing 0.1% Tween 20). The beads were finally mixed with 1 × LDS sample buffer (ThermoFisher Scientific) containing 100 mM dithiothreitol (DTT, Sigma-Aldrich) and heated at 95° C. for 10 minutes to elute the bead-associated proteins. The eluates and cell lysates were loaded onto a 12% SDS-PAGE and viral NS4B proteins were detected by a mouse monoclonal antibody according to the protocol as reported previously.^56

[4] = at the concentration up to 10 µM (data not shown)

| Structure (SMILES) | EC50 (DENV-4 replicon) [nM] | EC50 (DENV-1 replicon) [nM] | increase of EC50 of resistant viruses (resistance fold vs P0 DENV-2) [1] [folds] | EC50 (DENV-3 replicon) [nM] | EC50 (DENV-2 replicon) [nM] | CC50 at 48 h [2] [nM] | pull down of / association with viral NS4B protein [3] | remains active against DENV-3 (DENV-3 replicon; FIG. 1B) | remains active against DENV-2 (DENV-2 replicon; FIG. 1B) | activity against DENV-4 (DENV-4 replicon; [4]) | activity against DENV-1 (DENV-1 replicon; [4]) |
| --- | --- | --- | --- | --- | --- | --- | --- | --- | --- | --- | --- |
| C[C@@H](c1ccc(Cl)cc1)n1nnc2c1NC(=O)C[C@]21C(=O)N(CCCN(C)C)c2ccc(Cl)cc21 [Compound 63, (R)-5'-Chloro-3-((S)-1-(4-chlorophenyl)ethyl)-1'-(3-(dimethylamino)propyl)-4,6-dihydrospiro[[1,2,3]triazolo[4,5-b]pyridine-7,3'-indoline]-2',5(3H)-dione] | > 5000 | > 5000 | > 100 | 1 | 25 | > 10000 |  |  |  |  |  |
| C[C@@H](c1ccc(Cl)cc1)n1nnc2c1NC(=O)C[C@@]21C(=O)N(CCOC(=O)CCCCCCCNC(=O)CCCC[C@@H]2SC[C@@H]3NC(=O)N[C@@H]32)c2ccc(Cl)cc21 [Compound 75, 2-((S)-5'-Chloro-3-((S)-1-(4-chlorophenyl)ethyl)-2',5-dioxo-3,4,5,6-tetrahydrospiro[[1,2,3]triazolo[4,5-b]pyridine-7,3'-indolin]-1'-yl)ethyl 8-(5-((3aS,4S,6aR)-2-oxohexahydro-1H-thieno[3,4-d]imidazol-4-yl)pentanamido)octanoate] |  |  |  |  |  |  | not | not | not |  |  |
| C[C@@H](c1ccc(Cl)cc1)n1nnc2c1NC(=O)C[C@]21C(=O)N(CCOC(=O)CCCCCCCNC(=O)CCCC[C@@H]2SC[C@@H]3NC(=O)N[C@@H]32)c2ccc(Cl)cc21 [Compound 73, 2-((R)-5'-Chloro-3-((S)-1-(4-chlorophenyl)ethyl)-2',5-dioxo-3,4,5,6-tetrahydrospiro[[1,2,3]triazolo[4,5-b]pyridine-7,3'-indolin]-1'-yl)ethyl 8-(5-((3aS,4S,6aR)-2-oxohexahydro-1H-thieno[3,4-d]imidazol-4-yl)pentanamido)octanoate] |  |  |  | 17 | 41 |  | can pull down viral NS4B protein; also recorded: associated with DENV-2 viral NS4B protein |  |  | no significant activity | no significant activity |
| C[C@@H](c1ccc(Cl)cc1)n1nnc2c1NC(=O)C[C@]21C(=O)N(CCN2CCCC2)c2ccc(Cl)cc21 [Compound 58, (R)-5'-Chloro-3-((S)-1-(4-chlorophenyl)ethyl)-1'-(2-(pyrrolidin-1-yl)ethyl)-4,6-dihydrospiro[[1,2,3]triazolo[4,5-b]pyridine-7,3'-indoline]-2',5(3H)-dione] | > 5000 | > 5000 |  | 6 | 38 | > 10000 |  |  |  |  |  |
| CCCN1C(=O)[C@]2(CC(=O)Nc3c2nnn3[C@@H](C)c2ccc(Cl)cc2)c2cc(Cl)ccc21 [Compound 9, (R)-5'-Chloro-3-((S)-1-(4-chlorophenyl)ethyl)-1'-propyl-4,6-dihydrospiro[[1,2,3]triazolo[4,5-b]pyridine-7,3'-indoline]-2',5(3H)-dione] | > 5000 | 1900 |  | 10 | 71 | > 10000 |  |  |  |  |  |
| C[C@@H](c1ccc(Cl)cc1)n1nnc2c1NC(=O)C[C@]21C(=O)N(CCN2CCOCC2)c2ccc(Cl)cc21 [Compound 55, (R)-5'-chloro-3-((S)-1-(4-chlorophenyl)ethyl)-1'-(2-morpholinoethyl)-4,6-dihydrospiro[[1,2,3]triazolo[4,5-b]pyridine-7,3'-indoline]-2',5(3H)-dione] | > 5000 | > 5000 |  | 17 | 75 | > 10000 |  |  |  |  |  |
| C[C@@H](c1ccc(Cl)cc1)n1nnc2c1NC(=O)C[C@]21C(=O)N(CCN(C)CCS(C)(=O)=O)c2ccc(Cl)cc21 [Compound 60, (R)-5'-Chloro-3-((S)-1-(4-chlorophenyl)ethyl)-1'-(2-(methyl(2-(methylsulfonyl)ethyl)amino)ethyl)-4,6-dihydrospiro[[1,2,3]triazolo[4,5-b]pyridine-7,3'-indoline]-2',5(3H)-dione] | > 5000 | > 5000 |  | 18 | 77 | > 10000 |  |  |  |  |  |
| C#CCN1C(=O)[C@]2(CC(=O)Nc3c2nnn3[C@@H](C)c2ccc(Cl)cc2)c2cc(Cl)ccc21 [Compound 19, (R)-5ʹ-Chloro-3-((S)-1-(4-chlorophenyl)ethyl)-1ʹ-(prop-2-yn-1-yl)-4,6-dihydrospiro [[1,2,3]triazolo[4,5-b]pyridine-7,3ʹ-indoline]-2ʹ,5(3H)-dione] | > 5000 | > 5000 |  | 3 | 69 | > 10000 |  |  |  |  |  |
| COC(=O)CN1C(=O)C[C@]2(C(=O)Nc3ccc(Cl)cc32)c2nnn([C@@H](C)c3ccc(Cl)cc3)c21 [Compound 44, Methyl 2-((R)-5'-chloro-3-((S)-1-(4-chlorophenyl)ethyl)-2',5-dioxo-5,6-dihydrospiro[[1,2,3]triazolo[4,5-b]pyridine-7,3'-indolin]-4(3H)-yl)acetate] | > 10000 | > 10000 |  | 2700 | > 10000 | > 10000 |  |  |  |  |  |
| C[C@@H](c1ccc(Cl)cc1)n1nnc2c1NC(=O)C[C@]21C(=O)N(CCCBr)c2ccc(Cl)cc21 [Compound 47, (R)-1'-(3-Bromopropyl)-5'-chloro-3-((S)-1-(4-chlorophenyl)ethyl)-4,6-dihydrospiro[[1,2,3]triazolo[4,5-b]pyridine-7,3'-indoline]-2',5(3H)-dione] | 3200 | 2400 |  | 76 | 250 | > 10000 |  |  |  |  |  |
